ChEMBL document CHEMBL4152208, “Synthesis and structure-activity relationships of quinolinone and quinoline-based P2X7 receptor antagonists and their anti-sphere formation activities in glioblastoma cells” (Eur J Med Chem, 2018)
Values after ≈ are worked out from the molar mass of the structure shown. Active and inactive are the calls of the source. The rule behind the calls is not given here.

How the values were obtained:
[1] = Drug level in zebrafish brain at 10 mg/kg, po administered via gavage measured 0.5 hrs post compound administration by LC-MS/MS analysis; format: ADME, organism-based, Danio rerio; settings: read-out: Drug uptake
[2] = target: T1, P2X purinoceptor 7 (Homo sapiens, UniProt Q99572); assay: Antagonist activity at P2X7 in LPS/IFN gamma differentiated human THP-1 cells assessed as inhibition of BzATP-induced IL-1beta release preincubated for 30 mins followed by BzATP stimulation for 30 mins by ELISA; format: cell-based
T1 sequence (Q99572 whole entry): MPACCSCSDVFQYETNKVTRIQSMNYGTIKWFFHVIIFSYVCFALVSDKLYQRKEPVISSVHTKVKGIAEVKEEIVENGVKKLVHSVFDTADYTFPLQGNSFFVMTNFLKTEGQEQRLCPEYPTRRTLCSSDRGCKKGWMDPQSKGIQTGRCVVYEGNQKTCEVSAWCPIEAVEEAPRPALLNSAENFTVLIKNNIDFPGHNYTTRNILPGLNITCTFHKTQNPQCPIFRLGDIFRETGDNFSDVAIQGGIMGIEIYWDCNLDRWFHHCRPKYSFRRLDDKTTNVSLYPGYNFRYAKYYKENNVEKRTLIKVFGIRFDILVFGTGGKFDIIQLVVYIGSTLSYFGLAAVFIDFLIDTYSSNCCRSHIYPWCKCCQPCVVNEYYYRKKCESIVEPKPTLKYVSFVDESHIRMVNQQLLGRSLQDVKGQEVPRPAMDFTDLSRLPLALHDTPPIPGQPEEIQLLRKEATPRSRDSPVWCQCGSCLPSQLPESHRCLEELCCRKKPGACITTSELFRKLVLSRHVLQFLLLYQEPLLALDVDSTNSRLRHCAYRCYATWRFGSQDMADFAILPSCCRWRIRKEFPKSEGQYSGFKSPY

[3] = Metabolic stability in mouse liver microsomes assessed as parent compound remaining at 1 uM up to 30 mins in presence of NADPH by LC-MS/MS analysis; format: ADME, microsome; settings: read-out: Stability
[4] = target: T2, P2X purinoceptor 4 (Homo sapiens) (UniProt Q99571); assay: Antagonist activity at human P2X4 receptor expressed in 1321N1 cells assessed as inhibition of ATP-induced calcium flux at 1 uM measured for 30 secs at 0.4 secs intervals by Flou-4-AM dye based fluorescence assay relative to control; format: cell-based
T2 sequence (whole entry): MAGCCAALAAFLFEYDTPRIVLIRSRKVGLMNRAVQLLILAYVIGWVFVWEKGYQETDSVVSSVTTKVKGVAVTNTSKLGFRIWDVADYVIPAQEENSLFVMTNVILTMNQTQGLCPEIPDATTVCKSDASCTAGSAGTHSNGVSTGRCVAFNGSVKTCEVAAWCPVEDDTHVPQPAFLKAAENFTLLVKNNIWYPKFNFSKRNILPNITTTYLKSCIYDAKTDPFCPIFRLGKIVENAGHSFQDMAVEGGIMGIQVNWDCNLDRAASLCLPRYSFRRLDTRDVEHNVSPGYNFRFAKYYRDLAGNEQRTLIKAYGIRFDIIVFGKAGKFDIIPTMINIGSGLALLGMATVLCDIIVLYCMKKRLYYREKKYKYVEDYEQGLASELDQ

[5] = Metabolic stability in rat liver microsomes assessed as parent compound remaining at 1 uM up to 30 mins in presence of NADPH by LC-MS/MS analysis; format: ADME, microsome; settings: read-out: Stability
[6] = Drug level in zebrafish blood at 10 mg/kg, po administered via gavage measured 0.5 hrs post compound administration by LC-MS/MS analysis; format: ADME, organism-based, Danio rerio; settings: read-out: Drug uptake
[7] = target: T3, P2X purinoceptor 2 (Homo sapiens) (UniProt Q9UBL9); assay: Antagonist activity at human P2X2 receptor expressed in 1321N1 cells assessed as inhibition of ATP-induced calcium flux at 1 uM measured for 30 secs at 0.4 secs intervals by Flou-4-AM dye based fluorescence assay relative to control; format: cell-based
T3 sequence (whole entry): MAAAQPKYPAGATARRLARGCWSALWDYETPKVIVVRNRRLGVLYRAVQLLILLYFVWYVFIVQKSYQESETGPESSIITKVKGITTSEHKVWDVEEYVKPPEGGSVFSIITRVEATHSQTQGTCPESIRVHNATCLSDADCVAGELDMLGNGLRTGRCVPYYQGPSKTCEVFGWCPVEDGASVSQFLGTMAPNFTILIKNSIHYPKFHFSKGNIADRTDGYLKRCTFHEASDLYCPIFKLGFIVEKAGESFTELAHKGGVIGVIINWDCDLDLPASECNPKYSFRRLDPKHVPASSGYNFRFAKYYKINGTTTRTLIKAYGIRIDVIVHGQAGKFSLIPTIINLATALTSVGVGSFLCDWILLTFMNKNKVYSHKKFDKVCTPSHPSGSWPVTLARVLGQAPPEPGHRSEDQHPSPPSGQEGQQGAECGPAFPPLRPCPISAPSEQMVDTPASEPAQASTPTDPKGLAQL

[8] = Increase in CD133 mRNA expression in human TS15-88 cells after 72 hrs by qRT-PCR analysis relative to control; format: functional
[9] = target: T1, P2X purinoceptor 7; assay: Antagonist activity at human P2X7 receptor expressed in HEK293 cells assessed as inhibition of BzATP-induced EtBr uptake after 2 hrs by fluorescence assay relative to control; format: cell-based
[10] = target: T4, P2X purinoceptor 7 (Homo sapiens) (UniProt Q99572); assay: Antagonist activity at human P2X7 receptor expressed in HEK293 cells assessed as inhibition of BzATP-induced EtBr uptake at 10 uM after 2 hrs by fluorescence assay relative to control; format: cell-based
T4 sequence (whole entry): T1 sequence (Q99572 whole entry)

[11] = Cytotoxicity against HEK293 cells expressing human P2X7 receptor assessed as cell survival at 10 uM by MTT assay relative to control; format: cell-based; settings: read-out: Survival
[12] = Equilibrium solubility of the compound in DMSO after 16 hrs; format: physicochemical
[13] = target: T4, P2X purinoceptor 7 (Homo sapiens); assay: Antagonist activity at human P2X7 receptor expressed in HEK293 cells assessed as inhibition of BzATP-induced EtBr uptake at 1 uM after 2 hrs by fluorescence assay relative to control; format: cell-based
[14] = Ratio of drug level in zebrafish brain to blood at 10 mg/kg, po administered via gavage measured 0.5 hrs post compound administration by LC-MS/MS analysis; format: ADME, organism-based, Danio rerio
[15] = species on record: Homo sapiens; assay: Inhibition of neurosphere formation in human TS15-88 cells assessed as decrease in surface area of sphere at 50 uM after 5 days by microscopic analysis; format: functional, cell-based

`O=C(CC12CC3CC(CC(C3)C1)C2)Nc1cccc2nc(Cl)ccc12` gave a concentration at 0.5 h [1] of 425 ng/g, an IC50 [2] of 7 nM and a remaining at 0.5 h, 1 µM [3] of 0.1%. For the same molecule, the inhibition [4] was 4%, the remaining at 0.5 h, 1 µM [5] was 0.06% and the concentration at 0.5 h [6] was 235 ng/mL. The inhibition [7] was 7%, the Activity [8] was 30% and the IC50 [9] was 4 nM. The inhibition [10] was 97%, the viability at 10 µM [11] was 98% and the solubility at 16 h [12] was 15.6 µM (≈ 5.54 µg/mL). The inhibition [13] was 89%, the Kp at 0.5 h [14] was 2.03 and the inhibition [15] was “Active”.
